“Also recorded” adds a separate entry of the source. Like-named read-outs stand apart in the source and are kept apart here. Marks after values point to notes of the source that are not given here.
Assays:
Human SST2 = Human SST2 (Homo sapiens, UniProt P30874); format: cell-based
hERG [1] = biological target: T1, hERG (Homo sapiens, UniProt Q12809); assay: Patch-clamp hERG assay; format: cell-based
plasma IGF-1 [2] = assay: Plasma IGF-1 after repeated daily oral dosing in rats; format: in vivo, rat; details: male SD rats
plasma IGF-1 [3] = assay: Plasma IGF-1 after repeated daily oral dosing in dogs; format: in vivo, dog; details: p < 0.05
hERG [4] = biological target: T1, hERG; details: for hERG ion channel inhibition (in words): hERG inhibition binding assay
GH secretion and IGF-1 = details: cited from earlier work; for effect on IGF-1 levels / effect on GHRH-stimulated GH secretion: Phase 1, healthy volunteers; for effect on IGF-1 levels: over several days
IGF-1 = details: Phase 2, acromegaly patients switched to oral paltusotine; cited from earlier work
[5] = healthy human volunteers, Phase 1 study; cited from earlier work

T1 sequence (Q12809 whole entry): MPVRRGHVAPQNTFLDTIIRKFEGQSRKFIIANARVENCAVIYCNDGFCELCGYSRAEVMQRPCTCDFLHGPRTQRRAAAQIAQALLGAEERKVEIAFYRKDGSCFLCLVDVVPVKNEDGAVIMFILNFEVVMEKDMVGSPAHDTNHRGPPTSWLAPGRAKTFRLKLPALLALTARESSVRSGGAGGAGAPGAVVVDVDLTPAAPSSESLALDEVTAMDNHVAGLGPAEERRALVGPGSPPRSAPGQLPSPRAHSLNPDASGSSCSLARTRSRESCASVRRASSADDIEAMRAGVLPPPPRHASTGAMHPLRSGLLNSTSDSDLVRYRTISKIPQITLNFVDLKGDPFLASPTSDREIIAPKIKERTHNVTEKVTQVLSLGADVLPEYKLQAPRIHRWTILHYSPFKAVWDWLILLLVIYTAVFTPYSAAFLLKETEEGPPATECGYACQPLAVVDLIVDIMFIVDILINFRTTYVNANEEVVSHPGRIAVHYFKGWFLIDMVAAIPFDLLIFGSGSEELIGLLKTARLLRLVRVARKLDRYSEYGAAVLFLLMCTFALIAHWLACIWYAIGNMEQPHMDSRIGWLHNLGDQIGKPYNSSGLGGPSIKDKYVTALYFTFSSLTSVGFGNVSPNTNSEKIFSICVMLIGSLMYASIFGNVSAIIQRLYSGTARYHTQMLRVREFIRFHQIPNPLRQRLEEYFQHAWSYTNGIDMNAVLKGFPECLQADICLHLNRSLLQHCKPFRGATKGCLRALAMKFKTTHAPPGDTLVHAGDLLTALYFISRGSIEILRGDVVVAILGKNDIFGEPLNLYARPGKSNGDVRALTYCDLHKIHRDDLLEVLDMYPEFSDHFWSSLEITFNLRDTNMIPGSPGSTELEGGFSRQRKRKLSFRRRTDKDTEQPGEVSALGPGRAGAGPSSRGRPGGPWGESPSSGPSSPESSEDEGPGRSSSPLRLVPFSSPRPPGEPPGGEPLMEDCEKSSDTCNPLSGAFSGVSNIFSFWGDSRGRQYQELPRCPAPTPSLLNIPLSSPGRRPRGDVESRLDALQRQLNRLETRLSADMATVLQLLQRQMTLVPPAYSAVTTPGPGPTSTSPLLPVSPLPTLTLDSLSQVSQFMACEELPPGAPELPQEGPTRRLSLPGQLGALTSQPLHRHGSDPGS
Human SST2, sequence (P30874 whole entry): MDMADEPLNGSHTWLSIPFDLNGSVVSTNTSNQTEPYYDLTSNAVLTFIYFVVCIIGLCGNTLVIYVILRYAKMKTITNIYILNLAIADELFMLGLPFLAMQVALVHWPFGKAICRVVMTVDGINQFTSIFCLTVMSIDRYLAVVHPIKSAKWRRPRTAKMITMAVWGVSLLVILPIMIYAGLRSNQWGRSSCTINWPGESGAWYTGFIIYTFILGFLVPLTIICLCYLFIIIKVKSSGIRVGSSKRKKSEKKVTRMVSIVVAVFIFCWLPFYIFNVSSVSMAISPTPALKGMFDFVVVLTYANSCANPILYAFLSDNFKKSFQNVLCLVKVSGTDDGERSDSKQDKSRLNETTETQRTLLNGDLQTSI

SMILES	selectivity for SST2 over other SST receptor subtypes (Human SST2) [fold]	IC50 (hERG [1]) [µM]	suppression of plasma IGF-1 relative to vehicle (plasma IGF-1 [2]; 10 mg/kg/day po for 14 days, days 2, 10 and 14, p < 0.05)	suppression of plasma IGF-1 relative to vehicle (plasma IGF-1 [2]; 30 mg/kg/day po for 14 days, all days measured, p < 0.05)	suppression of plasma IGF-1 relative to vehicle, day 1 (plasma IGF-1 [3]; male and female beagle dogs, 150 mg/kg/day po)	suppression of plasma IGF-1 compared to vehicle, day 7 (plasma IGF-1 [3]; male and female beagle dogs, 6, 30 and 150 mg/kg/day po for 7 days)	hERG pIC50±SEM (hERG [4]; hERG binding assay)	hERG ion channel inhibition (in words) (hERG [4])	effect on IGF-1 levels (GH secretion and IGF-1; listed as Paltusotine)	effect on IGF-1 levels (GH secretion and IGF-1; listed as paltusotine)	effect on GHRH-stimulated GH secretion (GH secretion and IGF-1; listed as Paltusotine)	effect on GHRH-stimulated GH secretion (GH secretion and IGF-1; listed as paltusotine)	tolerability (GH secretion and IGF-1; double-blind placebo-controlled Phase 1 trial, healthy volunteers)	effect on IGF-1 levels after switch from injected depots (IGF-1)	oral bioavailability [5] [%]
N#Cc1cccc(-c2ccc3ncc(-c4cc(F)cc(F)c4)c(N4CCC(N)CC4)c3c2)c1O [Compound 22, 3-[4-(4-aminopiperidin-1-yl)-3-(3,5-difluorophenyl)quinolin-6-yl]-2-hydroxybenzonitrile]	> 1000	9.9	significantly suppressed	significantly suppressed	significantly suppressed	significantly suppressed	<5 ^c	weak inhibitors; also recorded: no direct inhibition	dose-dependent reduction	lowered IGF-1 levels	dose-dependent reduction	acutely suppressed	good tolerability	maintain IGF-1 levels	~70
N#Cc1cc(F)cc(-c2ccc3ncc(-c4cc(F)cc(F)c4)c(N4CCC(N)CC4)c3c2)c1O [Compound 24]	–	–	–	–	–	–	–	weak inhibitors	–	–	–	–	–	–	–
N#Cc1cccc(-c2ccc3ncc(-c4cccc(F)c4)c(N4CCC(N)CC4)c3c2)c1O [Compound 25]	–	–	–	–	–	–	–	weak inhibitors	–	–	–	–	–	–	–

From PMC9841592 (ACS Medicinal Chemistry Letters, 2022)
